According to ChEMBL document CHEMBL3124855, “4'-Substituted pyrimidine nucleosides lacking 5'-hydroxyl function as potential anti-HCV agents” (Bioorg Med Chem Lett, 2014):

How the values were obtained:
[1] = Selectivity index, ratio of CC50 for human HuH7 cells to EC50 for HCV subtype 1a; parameters: species or system Huh-7
[2] = Cytotoxicity against human HuH7 cells after 2 days by XTT assay; assay type: cell-based, Huh-7
Hepatitis C virus [3] = assay: Antiviral activity against HCV subtype 1a infected in Huh-7 cells assessed as reduction in viral RNA level at 84.4 uM after 8 to 10 days by quantitative PCR analysis; assay type: functional, Hepacivirus hominis
Hepatitis C virus [4] = assay: Antiviral activity against HCV subtype 1a infected in Huh-7 cells assessed as reduction in viral RNA level after 8 to 10 days by quantitative PCR analysis; assay type: functional, organism-based, Hepacivirus hominis
Hepatitis C virus [5] = assay: Antiviral activity against HCV subtype 1a infected in Huh-7 cells assessed as reduction in viral RNA level at 69.4 uM after 8 to 10 days by quantitative PCR analysis; assay type: functional, Hepacivirus hominis
Hepatitis C virus [6] = assay: Antiviral activity against HCV subtype 1a infected in Huh-7 cells assessed as reduction in viral RNA level at 75.2 uM after 8 to 10 days by quantitative PCR analysis; assay type: functional, Hepacivirus hominis
Hepatitis C virus [7] = assay: Antiviral activity against HCV subtype 1a infected in Huh-7 cells assessed as reduction in viral RNA level at 71.4 uM after 8 to 10 days by quantitative PCR analysis; assay type: functional, Hepacivirus hominis
Hepatitis C virus [8] = assay: Antiviral activity against HCV subtype 1a infected in Huh-7 cells assessed as reduction in viral RNA level at 69.7 uM after 8 to 10 days by quantitative PCR analysis; assay type: functional, Hepacivirus hominis
Hepatitis C virus [9] = assay: Antiviral activity against HCV subtype 1a infected in Huh-7 cells assessed as reduction in viral RNA level at 79.4 uM after 8 to 10 days by quantitative PCR analysis; assay type: functional, Hepacivirus hominis
Hepatitis C virus [10] = assay: Antiviral activity against HCV subtype 1a infected in Huh-7 cells assessed as reduction in viral RNA level at 83.3 uM after 8 to 10 days by quantitative PCR analysis; assay type: functional, Hepacivirus hominis
Hepatitis C virus [11] = assay: Antiviral activity against HCV subtype 1a infected in Huh-7 cells assessed as reduction in viral RNA level at 35.6 uM after 8 to 10 days by quantitative PCR analysis; assay type: functional, Hepacivirus hominis
Hepatitis C virus [12] = assay: Antiviral activity against HCV subtype 1a infected in Huh-7 cells assessed as reduction in viral RNA level at 67.7 uM after 8 to 10 days by quantitative PCR analysis; assay type: functional, Hepacivirus hominis
Hepatitis C virus [13] = assay: Antiviral activity against HCV subtype 1a infected in Huh-7 cells assessed as reduction in viral RNA level at 33.1 uM after 8 to 10 days by quantitative PCR analysis in presence of ribavirin; assay type: functional, Hepacivirus hominis
Hepatitis C virus [14] = assay: Antiviral activity against HCV subtype 1a infected in Huh-7 cells assessed as reduction in viral RNA level at 33.1 uM after 8 to 10 days by quantitative PCR analysis; assay type: functional, Hepacivirus hominis
Hepatitis C virus [15] = assay: Antiviral activity against HCV subtype 1a infected in Huh-7 cells assessed as reduction in viral RNA level at 66.2 uM after 8 to 10 days by quantitative PCR analysis; assay type: functional, Hepacivirus hominis
Hepatitis C virus [16] = assay: Antiviral activity against HCV subtype 1a infected in Huh-7 cells assessed as reduction in viral RNA level at 69.6 uM after 8 to 10 days by quantitative PCR analysis; assay type: functional, Hepacivirus hominis
Hepatitis C virus [17] = assay: Antiviral activity against HCV subtype 1a infected in Huh-7 cells assessed as reduction in viral RNA level at 72.9 uM after 8 to 10 days by quantitative PCR analysis; assay type: functional, Hepacivirus hominis
Hepatitis C virus [18] = assay: Antiviral activity against HCV subtype 1a infected in Huh-7 cells assessed as reduction in viral RNA level at 41 uM after 8 to 10 days by quantitative PCR analysis; assay type: functional, Hepacivirus hominis
Hepatitis C virus [19] = assay: Antiviral activity against HCV subtype 1a infected in Huh-7 cells assessed as reduction in viral RNA level at 81.9 uM after 8 to 10 days by quantitative PCR analysis; assay type: functional, Hepacivirus hominis

Compound | Ratio CC50/EC50 [1] | CC50 at 48 h [2] [µM] | EC50 (Hepatitis C virus [4]) [µM] | other results
Cc1cn([C@H]2CC=C(C(N)=O)O2)c(=O)[nH]c1=O | >10 | > 1060 | – | inhibition at 84.4 µM (Hepatitis C virus [3]): 20%
COC(=O)[C@H]1O[C@@H](n2cc(C)c(=O)[nH]c2=O)[C@H](F)[C@@H]1O | >10 | > 868 | 43.4 | inhibition at 69.4 µM (Hepatitis C virus [5]): 56%
[N-]=[N+]=N[C@H]1C[C@H](n2ccc(=O)[nH]c2=O)O[C@@H]1C(N)=O | >10 | > 940 | – | inhibition at 75.2 µM (Hepatitis C virus [6]): 10%
Cc1cn([C@H]2C[C@H](N=[N+]=[N-])[C@@H](C(N)=O)O2)c(=O)[nH]c1=O | >10 | > 893 | – | inhibition at 71.4 µM (Hepatitis C virus [7]): 10%
CCc1cn([C@@H]2O[C@H](C(N)=O)[C@@H](O)[C@@H]2F)c(=O)[nH]c1=O | >10 | > 871 | – | inhibition at 69.7 µM (Hepatitis C virus [8]): 20%
COC(=O)[C@@H]1C=C[C@H](n2cc(C)c(=O)[nH]c2=O)O1 | >10 | > 992 | 49.6 | inhibition at 79.4 µM (Hepatitis C virus [9]): 58%
COC(=O)C1=CC[C@H](n2cc(C)c(=O)[nH]c2=O)O1 | >10 | > 992 | 79.4 | inhibition at 79.4 µM (Hepatitis C virus [9]): 50%
COC(=O)[C@@H]1CC[C@H](n2ccc(=O)[nH]c2=O)O1 | >10 | > 1040 | – | inhibition at 83.3 µM (Hepatitis C virus [10]): 0%
COC(=O)[C@H]1O[C@@H](n2ccc(=O)[nH]c2=O)C[C@@H]1N=[N+]=[N-] | >10 | > 890 | 35.6 | inhibition at 35.6 µM (Hepatitis C virus [11]): 54%
COC(=O)[C@H]1O[C@@H](n2cc(C)c(=O)[nH]c2=O)C[C@@H]1N=[N+]=[N-] | >10 | > 847 | 33.9 | inhibition at 67.7 µM (Hepatitis C virus [12]): 60%
CCc1cn([C@@H]2O[C@H](C(=O)OC)[C@@H](O)[C@@H]2F)c(=O)[nH]c1=O | >10 | > 829 | 33.1 | fractional inhibitory concentration index (FICI) (Hepatitis C virus [13]): 0.3; inhibition at 33.1 µM (Hepatitis C virus [14]): 50%; inhibition at 66.2 µM (Hepatitis C virus [15]): 65%
COC(=O)[C@H]1O[C@@H](n2ccc(=O)[nH]c2=O)[C@H](OC)[C@@H]1O | >10 | > 874 | 69.6 | inhibition at 69.6 µM (Hepatitis C virus [16]): 53%
COC(=O)[C@H]1O[C@@H](n2cc(C)c(=O)[nH]c2=O)C[C@@H]1Cl | >10 | > 868 | 43.4 | inhibition at 69.4 µM (Hepatitis C virus [5]): 58%
COC(=O)[C@H]1O[C@@H](n2ccc(=O)[nH]c2=O)[C@H](F)[C@@H]1O | >10 | > 912 | > 72.9 | inhibition at 72.9 µM (Hepatitis C virus [17]): 43%
NC(=O)c1ncn([C@@H]2O[C@H](CO)[C@@H](O)[C@H]2O)n1 [RIBAVIRIN] | >10 | – | – | inhibition at 41 µM (Hepatitis C virus [18]): 32%; inhibition at 81.9 µM (Hepatitis C virus [19]): 50%
